Laboratory results: patent US20070054916A1, “Aryl nitrogen-containing bicyclic compounds and methods of use” (Amgen Inc., priority 2004, published 2007)

Tested on: production of TNF by monocytes activated with bacterial lipopolysaccharide (LPS)
Test: Lipopolysaccharide-activated monocyte TNF production assay
Type: cell-based
Details: Homo sapiens, read-out: IC50 values in the monocyte assay (LPS induced TNF release)
Method in brief: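 Adherent human PBMC-derived monocytes (~70%) in DMEM/2% FCS were pre-incubated 60 min with nine two-fold compound dilutions, then stimulated with E. coli K532 LPS (added as 30 ng/ml solution) for 4 h at 37 °C. Supernatant TNF-α was measured by sandwich ELISA. IC50 was taken from a polynomial fit of TNF versus compound concentration.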

Compound	IC50
CNc1ncc2cc(-c3cc(C(=O)Nc4cccc(C(F)(F)F)c4)ccc3C)cnc2n1 [Example 167, 4-methyl-3-(2-(methylamino)pyrido[2,3-d]pyrimidin-6-yl)-N-(3-(trifluoromethyl)phenyl)benzamide]	≤ 25 µM
CNc1ncc2cc(-c3cc(C(=O)NCc4ccccn4)ccc3C)cnc2n1 [Example 185, 4-methyl-3-(2-(methylamino)pyrido [2,3-d]pyrimidin-6-yl)-N-(2-pyridinylmethyl) benzamide]	≤ 25 µM
CNc1ncc2cc(-c3cc(C(=O)Nc4cc(C(C)(C)C)ccc4OC)ccc3C)cnc2n1 [Example 186]	≤ 25 µM
CNc1ncc2cc(-c3cc(C(=O)Nc4ccc(NC(=O)NCCN5CCOCC5)c(C(F)(F)F)c4)ccc3C)cnc2n1 [Example 187, 4-methyl-3-(2-(methylamino)pyrido [2,3-d]pyrimidin-6-yl)-N-(4-((((2-(4-morpholinyl)ethyl)amino)carbonyl)amino)-3-(trifluoromethyl)phenyl)benzamide]	≤ 25 µM
CCN(CC)CCNC(=O)Nc1ccc(NC(=O)c2ccc(C)c(-c3cnc4nc(NC)ncc4c3)c2)cc1C(F)(F)F [Example 188]	≤ 25 µM
CNc1ncc2cc(-c3cc(C(=O)Nc4cc(C(=O)NCCN5CCOCC5)cc(C(F)(F)F)c4)ccc3C)cnc2n1 [Example 189, 4-methyl-3-(2-(methylamino)pyrido [2,3-d]pyrimidin-6-yl)-N-(3-(((2-(4-morpholinyl)ethyl)amino)carbonyl)-5-(trifluoromethyl)phenyl)benzamide]	≤ 25 µM
CCN(CC)CCNC(=O)c1cc(NC(=O)c2ccc(C)c(-c3cnc4nc(NC)ncc4c3)c2)cc(C(F)(F)F)c1 [Example 190, N-(3-(((2-(diethylamino)ethyl)amino)carbonyl)-5-(trifluoromethyl)phenyl)-4-methyl-3-(2-(methylamino)pyrido [2,3-d]pyrimidin-6-yl)benzamide]	≤ 25 µM
CCN(CC)S(=O)(=O)c1ccc(OC)c(NC(=O)c2ccc(C)c(-c3cnc4nc(NC)ncc4c3)c2)c1 [Example 191, N-(5-((diethylamino)sulfonyl)-2-(methyloxy)phenyl)-4-methyl-3-(2-(methylamino)pyrido [2,3-d]pyrimidin-6-yl)benzamide]	≤ 25 µM
CNc1ncc2cc(-c3cc(C(=O)Nc4cc(C(C)(C)C)ccc4NC(=O)CN4CCOCC4)ccc3C)cnc2n1 [Example 192]	≤ 25 µM
CNc1ncc2cc(-c3cc(C(=O)Nc4cc(C(F)(F)F)ccc4N(C)CCCN(C)C)ccc3C)cnc2n1 [Example 193, N-(2-((3-(dimethylamino)propyl)(methyl)amino)-5-(trifluoromethyl)phenyl)-4-methyl-3-(2-(methylamino)pyrido[2,3-d]pyrimidin-6-yl)benzamide]	≤ 25 µM
Nc1ncc2cc(-c3cc(NC(=O)c4cccc(C(F)(F)F)c4)ccc3C(F)(F)F)ccc2n1 [Example 196]	≤ 25 µM
Cc1c(NC(=O)c2cccc(C(F)(F)F)c2)cccc1-c1ccc2nc(N)ncc2c1 [Example 197, N-(3-(2-amino-6-quinazolinyl)-2-methylphenyl)-3-(trifluoromethyl)benzamide]	≤ 25 µM
CNc1ncc2cc(-c3cccc(NC(=O)c4cccc(C(F)(F)F)c4)c3C)cnc2n1 [Example 198, N-2-methyl-3-(2-(methylamino)pyrido[2,3-d]pyrimidin-6-yl)-N-(3-(trifluoromethyl)phenyl)benzamide]	≤ 25 µM
CNc1ncc2cc(-c3cc(NC(=O)c4cccc(C(F)(F)F)c4)ccc3C)cnc2n1 [Example 199, N-(4-methyl-3-(2-(methylamino)pyrido[2,3-d]pyrimidin-6-yl)phenyl)-3-(trifluoromethyl) benzamide]	≤ 25 µM
CNc1ncc2cc(-c3cc(NC(=O)c4cc(C(F)(F)F)cc(C(F)(F)F)c4)ccc3C)cnc2n1 [Example 200, N-(4-methyl-3-(2-(methylamino)pyrido[2,3-d]pyrimidin-6-yl)phenyl)-3,5-bis(trifluoromethyl)benzamide]	≤ 25 µM
CNc1ncc2cc(-c3cc(NC(=O)c4cccc(Cl)c4Cl)ccc3C)cnc2n1 [Example 201, 2,3-dichloro-N-(4-methyl-3-(2-(methylamino)pyrido[2,3-d]pyrimidin-6-yl)phenyl)benzamide]	≤ 25 µM
CNc1ncc2cc(-c3cc(NC(=O)c4cccc(C(F)(F)F)c4F)ccc3C)cnc2n1 [Example 202]	≤ 25 µM
CNc1ncc2cc(-c3cc(NC(=O)c4cccc5c4OC(F)(F)O5)ccc3C)cnc2n1 [Example 214, 2,2-difluoro-N-(4-methyl-3-(2-(methylamino)pyrido[2,3-d]pyrimidin-6-yl)phenyl)-1,3-benzodioxole-4-carboxamide]	≤ 25 µM
CNc1ncc2cc(-c3cc(NC(=O)c4cc(OC)c(OC)c(OC)c4)ccc3C)cnc2n1 [Example 216, N-(4-methyl-3-(2-(methylamino)pyrido[2,3-d]pyrimidin-6-yl)phenyl)-3,4,5-tris(methyloxy)benzamide]	≤ 25 µM
CNc1ncc2cc(-c3cc(NC(=O)c4cc(F)cc(C(F)(F)F)c4)ccc3C)cnc2n1 [Example 217, 3-fluoro-N-(4-methyl-3-(2-(methylamino)pyrido[2,3-d]pyrimidin-6-yl)phenyl)-5-(trifluoromethyl) benzamide]	≤ 25 µM

Compound	IC50
CNc1ncc2cc(-c3cccc(NC(=O)c4cc(F)cc(C(F)(F)F)c4)c3C)cnc2n1 [Example 219]	≤ 25 µM
Cc1c(NC(=O)c2cc(C(F)(F)F)cc(C(F)(F)F)c2)cccc1-c1ccc2nc(N)ncc2c1 [Example 220, N-(3-(2-amino-6-quinazolinyl)-2-methylphenyl)-3,5-bis(trifluoromethyl)benzamide]	≤ 25 µM
CNc1ncc2cc(-c3cccc(NC(=O)c4cc(C(F)(F)F)cc(C(F)(F)F)c4)c3C)cnc2n1 [Example 221]	≤ 25 µM
Cc1c(NC(=O)c2cc(C(F)(F)F)ccc2F)cccc1-c1ccc2nc(N)ncc2c1 [Example 222, N-(3-(2-amino-6-quinazolinyl)-2-methylphenyl)-2-fluoro-5-(trifluoromethyl) benzamide]	≤ 25 µM
CNc1ncc2cc(-c3cccc(NC(=O)c4cc(C(F)(F)F)ccc4F)c3C)cnc2n1 [Example 223, 2-fluoro-N-(2-methyl-3-(2-(methylamino)pyrido[2,3-d]pyrimidin-6-yl)phenyl)-5-(trifluoromethyl) benzamide]	≤ 25 µM
Cc1cc(C)c(-c2ccc3nc(N)ncc3c2)c(C)c1NC(=O)c1cccc(C(F)(F)F)c1 [Example 224, N-(3-(2-amino-6-quinazolinyl)-2,4,6-trimethylphenyl)-3-(trifluoromethyl) benzamide]	≤ 25 µM
Cc1ccc(C(=O)Nc2nc(C)c(C)s2)cc1-c1ccc2nc(N)ncc2c1 [Example 225, 3-(2-amino-6-quinazolinyl)-N-(4,5-dimethyl-1,3-thiazol-2-yl)-4-methylbenzamide]	≤ 25 µM
Cc1ccc(C(=O)Nc2ccc(C(C)(C)C)c(NC(=O)CN(C)C)c2)cc1-c1ccc2nc(N)ncc2c1 [Example 227, 3-(2-amino-6-quinazolinyl)-N-(4-(1,1-dimethylethyl)-3-((N,N-dimethylglycyl)amino)phenyl)-4-methylbenzamide]	≤ 25 µM
Cc1ccc(C(=O)Nc2cc(C(F)(F)F)ccc2N2CCS(=O)(=O)CC2)cc1-c1ccc2nc(N)ncc2c1 [Example 228, 3-(2-amino-6-quinazolinyl)-N-(2-(1,1-dioxido-4-thiomorpholinyl)-5-(trifluoromethyl)phenyl)-4-methylbenzamide]	≤ 25 µM
CCN(CC)S(=O)(=O)c1ccc(OC)c(NC(=O)c2ccc(C)c(-c3ccc4nc(N)ncc4c3)c2)c1 [Example 231, 3-(2-amino-6-quinazolinyl)-N-(5-((diethylamino)sulfonyl)-2-(methyloxy)phenyl)-4-methylbenzamide]	≤ 25 µM
Cc1ccc(C(=O)Nc2cccc(Cl)c2Cl)cc1-c1ccc2nc(N)ncc2c1 [Example 232, 3-(2-amino-6-quinazolinyl)-N-(2,3-dichlorophenyl)-4-methylbenzamide]	≤ 25 µM
COc1ccc(NC(=O)c2ccc(C)c(-c3ccc4nc(N)ncc4c3)c2)c(OC)n1 [Example 233, 3-(2-amino-6-quinazolinyl)-N-(2,6-bis(methyloxy)-3-pyridinyl)-4-methylbenzamide]	≤ 25 µM
CC(=O)Nc1ccc(C(F)(F)F)cc1NC(=O)c1ccc(C)c(-c2ccc3nc(N)ncc3c2)c1 [Example 234, N-(2-(acetylamino)-5-(trifluoromethyl)phenyl)-3-(2-amino-6-quinazolinyl)-4-methylbenzamide]	≤ 25 µM
COc1ccc(OCCCN2CCN(C)CC2)cc1NC(=O)c1ccc(C)c(-c2ccc3nc(N)ncc3c2)c1 [Example 235]	≤ 25 µM
Cc1ccc(C(=O)Nc2cc(C(C)(C)C)ccc2N(C)CCCN(C)C)cc1-c1ccc2nc(N)ncc2c1 [Example 244, 3-(2-amino-6-quinazolinyl)-N-(2-((3-(dimethylamino)propyl)(methyl)amino)-5-(1,1-dimethylethyl)phenyl)-4-methylbenzamide]	≤ 25 µM
COc1ccc(NC(=O)c2ccc(C)c(-c3ccc4nc(N)ncc4c3)c2)c(OC)c1 [Example 270, 3-(2-amino-6-quinazolinyl)-N-(2,4-bis(methyloxy)phenyl)-4-methylbenzamide]	≤ 25 µM
Cc1ccc(C(=O)Nc2cc(C(F)(F)F)ccc2F)cc1-c1ccc2nc(N)ncc2c1 [Example 280, 3-(2-amino-6-quinazolinyl)-N-(2-fluoro-5-(trifluoromethyl)phenyl)-4-methylbenzamide]	≤ 25 µM
Cc1ccc(C(=O)Nc2cccc3ncccc23)cc1-c1ccc2nc(N)ncc2c1 [Example 281, 3-(2-amino-6-quinazolinyl)-4-methyl-N-(5-quinolinyl)benzamide]	≤ 25 µM
COc1cccc(NC(=O)c2ccc(C)c(-c3ccc4nc(N)ncc4c3)c2)c1OC [Example 283, 3-(2-amino-6-quinazolinyl)-N-(5,6-bis(methyloxy)-phenyl)-4-methylbenzamide]	≤ 25 µM
